Results: US7507335B2, “Dendrimer fluid purification agent and article” (KWG Technology, priority 2003, dated 2009)
Like-named read-outs stand apart in the source and are kept apart here.

Tests used:
E. coli = assay type: cell-based; conditions: 6-millimeter disc, 10 microliters, 24 hours
Experimental: (§1) A second sample of a dendrimer silver complex was tested against various concentrations of silver nitrate against both E. coli and Pseudomonas aerugentoas. The experiment was performed as follows: • 1. Prepare an inoculum of the test organisms by streaking the entire surface of agar plates, by the standard method for colony isolation, with ether E. coli or pseudomonas aerugentoas. The plates were incubated at 370 C for approximately 18 hours. • 2. Harvest all the growth on the test organism plates by flooding the plats with 9.0 ml of sterile distilled water per plate. Wash the harvested biomass by centrifugation for 1 hour at 3000 rpm, discarding the supernatant fluid, and resuspending in 9.0 ml of sterile distilled water. Resuspend harvested cell by vortex agitation for 1 minute. • 3. Inoculate test plates with 0.2 ml with the test organism prepare as described above. • 4. Place sterile 6-millimeter blank paper Discs on test plates and saturate with 10 microliters of the test substances. • 5. […]

Pseudomonas aerugentoas = test: Paper disc zone of inhibition test (Example Two); assay type: cell-based; conditions: 6-millimeter disc, 10 microliters, 24 hours
Experimental: as §1

O=[N+]([O-])[O-].[Ag+] [Silver Nitrate]
E. Coli (diameter of inhibitory zone) (E. coli; 0.5% Silver Nitrate): 6 millimeters
E. Coli (diameter of inhibitory zone) (E. coli; 1.0% Silver Nitrate): 6 millimeters
E. Coli (diameter of inhibitory zone) (E. coli; 2.5% Silver Nitrate): 6 millimeters
E. Coli (diameter of inhibitory zone) (E. coli; 5.0% Silver Nitrate): 6 millimeters
E. Coli (diameter of inhibitory zone) (E. coli; 7.5% Silver Nitrate): 6 millimeters
E. Coli (diameter of inhibitory zone) (E. coli; 10.0% Silver Nitrate): 6 millimeters
Pseudomonas (diameter of inhibitory zone) (Pseudomonas aerugentoas; 0.5% Silver Nitrate): 12 millimeters
Pseudomonas (diameter of inhibitory zone) (Pseudomonas aerugentoas; 1.0% Silver Nitrate): 9 millimeters
Pseudomonas (diameter of inhibitory zone) (Pseudomonas aerugentoas; 2.5% Silver Nitrate): 6 millimeters
Pseudomonas (diameter of inhibitory zone) (Pseudomonas aerugentoas; 5.0% Silver Nitrate): 6 millimeters
Pseudomonas (diameter of inhibitory zone) (Pseudomonas aerugentoas; 7.5% Silver Nitrate): 7 millimeters
Pseudomonas (diameter of inhibitory zone) (Pseudomonas aerugentoas; 10.0% Silver Nitrate): 11 millimeters
